Reference: ChEMBL document CHEMBL4043198, “Synthesis and electronic properties of ester substituted 1,4-dicyanodibenzodioxins and evaluation of anti-proliferative activity of all isomeric 1,2-, 2,3- and 1,4-dicyanodibenzodioxins against HeLa cell line” (Bioorg Med Chem Lett, 2017)
pIC50: −log10 of the molar value. Active and inactive are the calls of the source. The calls are words filed in the database; no cut-off is given here.

How the values were obtained:
HeLa [1] = assay: Cytotoxicity against human HeLa cells assessed as reduction in cell viability after 24 hrs by MTT assay; assay type: functional, cell-based
HeLa [2] = assay: Cytotoxicity against human HeLa cells assessed as cell viability at 2 uM after 24 hrs by MTT assay relative to control; assay type: functional; settings: read-out: Activity
HEK293 = assay: Cytotoxicity against HEK293 cells assessed as reduction in cell viability at 2 to 5 uM after 24 hrs by MTT assay; assay type: cell-based; settings: human, hek293, 24 h
HeLa [3] = assay: Induction of morphological changes in human HeLa cells assessed as rounding-off of cells after 24 hrs by Hoechst 33258 staining based fluorescence microscopic analysis; assay type: functional, cell-based
HeLa [4] = assay: Induction of morphological changes in human HeLa cells assessed as nuclear fragmentation after 24 hrs by Hoechst 33258 staining based fluorescence microscopic analysis; assay type: functional, cell-based
HeLa [5] = assay: Induction of morphological changes in human HeLa cells assessed as loss of cell shape after 24 hrs by Hoechst 33258 staining based fluorescence microscopic analysis; assay type: functional
HeLa [6] = assay: Induction of reactive oxygen species generation in human HeLa cells at 5 to 10 uM after 24 hrs by DCFDA dye-based fluorescence assay; assay type: functional, cell-based
Bos taurus = organism: Bos taurus; assay: Binding affinity to calf thymus DNA assessed as intrinsic binding constant by UV spectrophotometry
HeLa [7] = assay: Cytotoxicity against human HeLa cells assessed as reduction in cell viability at 2 to 50 uM after 24 hrs by MTT assay relative to control; assay type: functional

| SMILES | Activity (HeLa [1]) | pIC50 (HeLa [1]) | viability at 2 µM (HeLa [2]) [%] | Activity (HEK293) | Activity (HeLa [3]) | Activity (HeLa [4]) | Activity (HeLa [5]) | Activity (HeLa [6]) | logKb (Bos taurus) | Activity (HeLa [7]) |
| --- | --- | --- | --- | --- | --- | --- | --- | --- | --- | --- |
| CCN(CC)c1c(F)c(C#N)c2c(c1C#N)Oc1ccccc1O2 | Dose-dependent effect | 5.83 | 30 | Non-Toxic | Dose-dependent effect | Dose-dependent effect | Dose-dependent effect | Active | 5.5 |  |
| N#Cc1c(F)c(F)c2c(c1C#N)Oc1ccccc1O2 | Dose-dependent effect | 4.37 |  | Non-Toxic |  |  |  |  |  |  |
| N#Cc1cc2c(cc1C#N)Oc1cc([N+](=O)[O-])ccc1O2 |  |  |  |  |  |  |  |  |  | 70 - 80% |
| COC(=O)c1ccc2c(c1)Oc1c(C#N)c(F)c(F)c(C#N)c1O2 | Dose-dependent effect | 5.52 | 50 | Non-Toxic | Dose-dependent effect | Dose-dependent effect | Dose-dependent effect | Active | 5.39 |  |
| COC(=O)c1cccc2c1Oc1c(C#N)c(F)c(F)c(C#N)c1O2 | Dose-dependent effect | 5.80 | 35 | Non-Toxic | Dose-dependent effect | Dose-dependent effect | Dose-dependent effect | Active | 6 |  |
| COc1c(F)c(C#N)c2c(c1C#N)Oc1ccccc1O2 | Dose-dependent effect | 5.84 | 30 | Non-Toxic | Dose-dependent effect | Dose-dependent effect | Dose-dependent effect | Active | 5.38 |  |
| N#Cc1cc2c(cc1C#N)Oc1ccccc1O2 | Dose-dependent effect |  |  | Non-Toxic |  |  |  |  |  | 70 - 80% |
| CC/C(=C(\c1ccccc1)c1ccc(OCCN(C)C)cc1)c1ccccc1 [TAMOXIFEN] |  | 5.05 |  |  |  |  |  |  |  |  |
| N#Cc1c(F)c(F)c(C#N)c2c1Oc1ccccc1O2 | Dose-dependent effect | 5.02 |  | Non-Toxic |  |  |  |  |  | 70 - 80% |
| O=c1[nH]cc(F)c(=O)[nH]1 [FLUOROURACIL] |  | 5.54 |  |  |  |  |  |  |  |  |
| N#Cc1cc2c(cc1C#N)Oc1cc(Br)ccc1O2 | Dose-dependent effect | 5.05 |  | Non-Toxic |  |  |  |  |  | 70 - 80% |
